From US8536195B2, “Bicyclic derivatives as modulators of ion channels” (Vertex Pharmaceuticals Incorporated, priority 2005, dated 2013)
pIC50: −log10 of the molar value.

molecular target: T1, NaV1.3 (Homo sapiens, UniProt Q9NY46); test: not given; details: read-out: TTX IC50; cited from earlier work
Target sequence in this assay (Q9NY46 whole entry, looked up): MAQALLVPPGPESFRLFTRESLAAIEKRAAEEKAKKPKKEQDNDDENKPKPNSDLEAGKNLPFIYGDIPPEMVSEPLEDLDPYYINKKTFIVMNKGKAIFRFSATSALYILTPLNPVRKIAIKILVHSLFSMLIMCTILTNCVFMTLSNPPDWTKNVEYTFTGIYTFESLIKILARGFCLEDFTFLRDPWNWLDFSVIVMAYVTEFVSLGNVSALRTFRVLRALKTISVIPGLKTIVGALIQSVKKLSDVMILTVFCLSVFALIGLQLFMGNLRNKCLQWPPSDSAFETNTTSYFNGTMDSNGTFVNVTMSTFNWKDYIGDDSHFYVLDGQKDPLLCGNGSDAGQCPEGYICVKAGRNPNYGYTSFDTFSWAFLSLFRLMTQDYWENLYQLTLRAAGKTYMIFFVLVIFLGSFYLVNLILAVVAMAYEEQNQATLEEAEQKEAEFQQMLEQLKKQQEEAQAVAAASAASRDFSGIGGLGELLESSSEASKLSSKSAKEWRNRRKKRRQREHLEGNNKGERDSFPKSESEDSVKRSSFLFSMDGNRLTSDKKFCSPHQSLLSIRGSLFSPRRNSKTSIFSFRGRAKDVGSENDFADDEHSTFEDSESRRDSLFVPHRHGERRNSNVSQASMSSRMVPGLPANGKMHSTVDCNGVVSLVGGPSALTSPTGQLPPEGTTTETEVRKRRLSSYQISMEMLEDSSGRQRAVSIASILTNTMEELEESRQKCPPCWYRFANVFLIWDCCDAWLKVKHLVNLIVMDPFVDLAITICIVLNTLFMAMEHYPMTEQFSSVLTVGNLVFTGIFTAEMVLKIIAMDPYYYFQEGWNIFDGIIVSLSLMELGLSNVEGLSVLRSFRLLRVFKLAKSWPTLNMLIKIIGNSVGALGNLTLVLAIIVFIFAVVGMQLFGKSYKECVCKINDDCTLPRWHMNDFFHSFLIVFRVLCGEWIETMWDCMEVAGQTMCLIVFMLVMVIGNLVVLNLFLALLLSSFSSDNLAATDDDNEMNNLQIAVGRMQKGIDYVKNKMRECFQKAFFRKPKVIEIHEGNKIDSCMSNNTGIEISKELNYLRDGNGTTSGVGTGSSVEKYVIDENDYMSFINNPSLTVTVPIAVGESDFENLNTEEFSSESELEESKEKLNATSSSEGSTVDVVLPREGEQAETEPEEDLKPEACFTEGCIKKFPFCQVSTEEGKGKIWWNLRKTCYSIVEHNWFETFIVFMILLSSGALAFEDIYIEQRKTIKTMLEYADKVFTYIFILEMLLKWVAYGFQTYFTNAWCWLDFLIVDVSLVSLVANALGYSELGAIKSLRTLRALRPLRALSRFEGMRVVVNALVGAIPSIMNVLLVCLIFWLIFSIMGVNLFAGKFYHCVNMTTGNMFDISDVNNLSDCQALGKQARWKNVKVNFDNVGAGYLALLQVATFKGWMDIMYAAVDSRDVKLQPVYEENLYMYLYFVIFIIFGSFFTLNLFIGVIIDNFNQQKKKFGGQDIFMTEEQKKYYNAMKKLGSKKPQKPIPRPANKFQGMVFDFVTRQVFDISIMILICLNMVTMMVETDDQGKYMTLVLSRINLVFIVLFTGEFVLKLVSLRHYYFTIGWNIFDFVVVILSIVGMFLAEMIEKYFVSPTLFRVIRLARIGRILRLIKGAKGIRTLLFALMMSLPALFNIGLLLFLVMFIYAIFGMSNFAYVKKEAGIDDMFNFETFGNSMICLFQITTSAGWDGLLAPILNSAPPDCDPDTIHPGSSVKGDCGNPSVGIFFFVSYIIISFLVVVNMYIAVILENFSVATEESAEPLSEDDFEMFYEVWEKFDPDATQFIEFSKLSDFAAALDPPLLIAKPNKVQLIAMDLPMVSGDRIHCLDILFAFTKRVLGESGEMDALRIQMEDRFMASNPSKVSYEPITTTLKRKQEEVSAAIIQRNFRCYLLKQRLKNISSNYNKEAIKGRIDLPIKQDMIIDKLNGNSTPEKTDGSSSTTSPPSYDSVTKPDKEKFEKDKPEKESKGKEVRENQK

| Compound | pIC50 |
| --- | --- |
| NC1=N[C@H](O)[C@H]2[C@H]3O[C@]4(O)O[C@@H]([C@@H](O)[C@@]2(N1)[C@@H]4O)[C@]3(O)CO [TTX, tetrodotoxin] | 7.82 |

molecular target: NaV1.8 (Homo sapiens, UniProt Q9Y5Y9); test: not given; details: read-out: TTX IC50; cited from earlier work
Sequence (Q9Y5Y9 whole entry, looked up): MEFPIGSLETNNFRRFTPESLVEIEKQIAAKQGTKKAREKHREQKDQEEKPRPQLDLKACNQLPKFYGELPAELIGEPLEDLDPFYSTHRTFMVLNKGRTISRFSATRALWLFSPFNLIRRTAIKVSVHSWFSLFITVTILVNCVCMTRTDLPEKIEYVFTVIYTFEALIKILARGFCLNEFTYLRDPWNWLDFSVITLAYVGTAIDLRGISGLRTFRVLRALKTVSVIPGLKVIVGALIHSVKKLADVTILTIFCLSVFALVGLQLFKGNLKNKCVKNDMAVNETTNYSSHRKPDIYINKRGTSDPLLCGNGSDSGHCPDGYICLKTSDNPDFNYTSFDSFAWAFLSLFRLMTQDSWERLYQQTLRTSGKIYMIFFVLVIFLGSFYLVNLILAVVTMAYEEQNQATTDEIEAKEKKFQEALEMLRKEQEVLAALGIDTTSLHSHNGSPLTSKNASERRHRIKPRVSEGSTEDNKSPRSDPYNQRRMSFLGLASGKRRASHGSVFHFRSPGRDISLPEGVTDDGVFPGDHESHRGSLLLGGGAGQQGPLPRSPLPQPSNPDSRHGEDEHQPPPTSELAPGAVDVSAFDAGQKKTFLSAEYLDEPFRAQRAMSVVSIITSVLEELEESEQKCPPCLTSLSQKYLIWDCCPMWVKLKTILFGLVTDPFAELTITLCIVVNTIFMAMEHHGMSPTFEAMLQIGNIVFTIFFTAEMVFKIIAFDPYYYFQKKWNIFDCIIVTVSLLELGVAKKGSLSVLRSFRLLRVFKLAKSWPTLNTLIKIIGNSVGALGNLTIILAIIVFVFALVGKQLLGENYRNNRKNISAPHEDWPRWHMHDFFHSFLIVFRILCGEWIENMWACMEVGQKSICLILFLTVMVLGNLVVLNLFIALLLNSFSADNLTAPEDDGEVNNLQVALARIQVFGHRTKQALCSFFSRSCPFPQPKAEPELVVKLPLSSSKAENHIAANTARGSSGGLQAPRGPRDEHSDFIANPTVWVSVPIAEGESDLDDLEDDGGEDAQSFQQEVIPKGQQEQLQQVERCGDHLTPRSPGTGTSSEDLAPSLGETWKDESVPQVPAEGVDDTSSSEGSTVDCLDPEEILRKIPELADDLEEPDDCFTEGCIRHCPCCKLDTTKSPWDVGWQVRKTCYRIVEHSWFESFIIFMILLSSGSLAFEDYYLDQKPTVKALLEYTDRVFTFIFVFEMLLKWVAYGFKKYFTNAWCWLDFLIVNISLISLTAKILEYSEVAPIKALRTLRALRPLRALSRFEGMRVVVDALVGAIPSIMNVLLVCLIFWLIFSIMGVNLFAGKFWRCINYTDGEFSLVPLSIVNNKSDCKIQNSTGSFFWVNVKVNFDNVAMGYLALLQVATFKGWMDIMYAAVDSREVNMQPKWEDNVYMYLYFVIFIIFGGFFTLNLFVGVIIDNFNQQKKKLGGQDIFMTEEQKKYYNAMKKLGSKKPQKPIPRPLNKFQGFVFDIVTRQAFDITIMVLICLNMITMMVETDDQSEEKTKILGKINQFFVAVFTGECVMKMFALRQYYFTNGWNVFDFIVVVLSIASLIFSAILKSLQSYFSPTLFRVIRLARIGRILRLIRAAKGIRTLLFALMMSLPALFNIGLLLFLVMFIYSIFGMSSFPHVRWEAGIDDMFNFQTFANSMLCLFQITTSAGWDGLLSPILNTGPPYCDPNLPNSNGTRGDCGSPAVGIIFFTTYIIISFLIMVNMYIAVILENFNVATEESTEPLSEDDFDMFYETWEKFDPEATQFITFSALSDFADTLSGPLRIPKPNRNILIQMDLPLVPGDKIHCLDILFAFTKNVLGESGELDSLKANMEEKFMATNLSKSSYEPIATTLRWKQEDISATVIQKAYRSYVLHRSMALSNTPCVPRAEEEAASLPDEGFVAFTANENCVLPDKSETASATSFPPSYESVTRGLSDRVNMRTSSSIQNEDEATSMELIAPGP

| Compound | pIC50 |
| --- | --- |
| NC1=N[C@H](O)[C@H]2[C@H]3O[C@]4(O)O[C@@H]([C@@H](O)[C@@]2(N1)[C@@H]4O)[C@]3(O)CO [TTX, tetrodotoxin] | < 4.30 |

system: not given; test: not given; details: neuropathic pain, modest efficacy; cited from earlier work

| Compound | share of patients in which it works [%] |
| --- | --- |
| NCC1(CC(=O)O)CCCCC1 [Gabapentin] | 60 |

molecular target: T1, NaV1.3; test: Activity against NaV 1.3 channel (VIPR optical membrane potential assay with electrical stimulation); type: cell-based; design: expressed in transfected cells; host or cells: HEK293; details: not given
Experimental: Compounds of the invention are useful as antagonists of voltage-gated sodium ion channels. Antagonist properties of test compounds were assessed as follows. Cells expressing the NaV of interest were placed into microtiter plates. After an incubation period, the cells were stained with fluorescent dyes sensitive to the transmembrane potential. The test compounds were added to the microtiter plate. The cells were stimulated with either a chemical or electrical means to evoke a NaV dependent membrane potential change from unblocked channels, which was detected and measured with trans-membrane potential-sensitive dyes. Antagonists were detected as a decreased membrane potential response to the stimulus. The optical membrane potential assay utilized voltage-sensitive FRET sensors described by Gonzalez and Tsien (See Gonzalez, J. E. and R. Y. Tsien (1995) “Voltage sensing by fluorescence resonance energy transfer in single cells” Biophys J 69(4): 1272-80, and Gonzalez, J. E. and R. Y. Tsien (1997) “Improved indicators of cell membrane potential that use fluorescence resonance energy transfer” Chem Biol 4(4): 269-77) in combination with instrumentation for measuring fluorescence changes such as the Voltage/Ion Probe Reader (VIPR®) (See Gonzalez, J. E., K. Oades, et al. (1999) “Cell-based assays and instrumentation for screening ion-channel targets” Drug Discov Today 4(9): 431-439).
The following is an example of how NaV1.3 inhibition activity is measured using the optical membrane potential method #2. Other subtypes are performed in an analogous mode in a cell line expressing the NaV of interest.
HEK293 cells stably expressing NaV1.3 are plated into 96-well microtiter plates. After an appropriate incubation period, the cells are stained with the voltage sensitive dyes CC2-DMPE/DiSBAC2(3) as follows.
2×CC2-DMPE=20 μM CC2-DMPE: 10 mM CC2-DMPE is vortexed with an equivalent volume of 10% pluronic, followed by vortexing in required amount of HBSS containing 10 mM HEPES. Each cell plate will require 5 mL of 2×CC2-DMPE. 50 μL of 2×CC2-DMPE is to wells containing washed cells, resulting in a 10 μM final staining concentration. The cells are stained for 30 minutes in the dark at RT.
2×DISBAC2(3) with ABSC1=6 μM DISBAC2(3) and 1 mM ABSC1: The required amount of 10 mM DISBAC2(3) is added to a 50 ml conical tube and mixed with 1 μL 10% pluronic for each mL of solution to be made and vortexed together. Then HBSS/HEPES is added to make up 2× solution. Finally, the ABSC1 is added.
The 2×DiSBAC2(3) solution can be used to solvate compound plates. Note that compound plates are made at 2× drug concentration. Wash stained plate again, leaving residual volume of 50 μL. Add 50 uL/well of the 2×DiSBAC2(3) w/ABSC1. Stain for 30 minutes in the dark at RT.
The electrical stimulation instrument and methods of use are described in ION Channel Assay Methods PCT/US01/21652, herein incorporated by reference. The instrument comprises a microtiter plate handler, an optical system for exciting the coumarin dye while simultaneously recording the coumarin and oxonol emissions, a waveform generator, a current- or voltage-controlled amplifier, and a device for inserting electrodes in well. Under integrated computer control, this instrument passes user-programmed electrical stimulus protocols to cells within the wells of the microtiter plate.
Insert or use electrodes into each well to be assayed.
Use the current-controlled amplifier to deliver stimulation wave pulses for 3 s. Two seconds of pre-stimulus recording are performed to obtain the un-stimulated intensities. Five seconds of post-stimulation recording are performed to examine the relaxation to the resting state.
Data are analyzed and reported as normalized ratios of background-subtracted emission intensities measured in the 460 nm and 580 nm channels. Background intensities are then subtracted from each assay channel. […]
Target sequence in this assay (Q9NY46 whole entry): as the sequence (Q9NY46 whole entry, looked up) above

| Compound | pIC50 |
| --- | --- |
| O=C1Nc2ccc(S(=O)(=O)Nc3ncccn3)cc2CC1CCOc1ccc(Cl)cc1Cl (stereo not shown) [Compound 15] | 4.70 to 5.30 |
| O=C1Nc2ccc(S(=O)(=O)Nc3nc(-c4ccccc4)ns3)cc2CC1CCOc1ccc(Cl)cc1Cl (stereo not shown) [Compound 12] | 4.70 to 5.30 |
| O=C1Nc2ccc(S(=O)(=O)Nc3nnc(C4CC4)s3)cc2CC1CCOc1ccc(Cl)cc1Cl (stereo not shown) [Compound 9] | 4.70 to 5.30 |
| O=C1Nc2ccc(S(=O)(=O)Nc3nncs3)cc2CC1CCOc1ccc(Cl)cc1Cl (stereo not shown) [Compound 1] | 4.70 to 5.30 |
| Cc1csc(NS(=O)(=O)c2ccc3c(c2)CC(CCOc2ccc(Cl)cc2Cl)C(=O)N3)n1 (stereo not shown) [Compound 16] | 4.70 to 5.30 |
| COc1nc(NS(=O)(=O)c2ccc3c(c2)CC(CCOc2ccc(Cl)cc2Cl)C(=O)N3)ns1 (stereo not shown) [Compound 13] | 4.70 to 5.30 |
| O=C1Nc2ccc(S(=O)(=O)Nc3ccccn3)cc2CC1CCOc1ccc(Cl)cc1Cl (stereo not shown) [Compound 8] | 4.70 to 5.30 |
| O=C1Nc2ccc(S(=O)(=O)Nc3nccs3)cc2CC1CCOc1ccc(Cl)cc1Cl (stereo not shown) [Compound 3] | 4.70 to 5.30 |
| Cc1ccnc(NS(=O)(=O)c2ccc3c(c2)CC(CCOc2ccc(Cl)cc2Cl)C(=O)N3)n1 (stereo not shown) [Compound 10, 3-[2-(2,4-Dichloro-phenoxy)-ethyl]-2-oxo-1,2,3,4-tetrahydro-quinoline-6-sulfonic acid (4-methyl-pyrimidin-2-yl)-amide] | 4.70 to 5.30 |
| O=C1Nc2ccc(S(=O)(=O)Nc3nc[nH]n3)cc2CC1CCOc1ccc(Cl)cc1Cl (stereo not shown) [Compound 14] | 4.70 to 5.30 |
| O=C1Nc2ccc(S(=O)(=O)Nc3nnc(-c4ccccc4)s3)cc2CC1CCOc1ccc(Cl)cc1Cl (stereo not shown) [Compound 2] | 4.70 to 5.30 |
| Cc1nnc(NS(=O)(=O)c2ccc3c(c2)CC(CCOc2ccc(Cl)cc2Cl)C(=O)N3)s1 (stereo not shown) [Compound 11, 3-[2-(2,4-Dichloro-phenoxy)-ethyl]-2-oxo-1,2,3,4-tetrahydro-quinoline-6-sulfonic acid (5-methyl-[1,3,4]thiadiazol-2-yl)-amide] | 4.70 to 5.30 |
| Cc1cc(C)nc(NS(=O)(=O)c2ccc3c(c2)CC(CCOc2ccc(Cl)cc2Cl)C(=O)N3)n1 (stereo not shown) [Compound 4] | 4.70 to 5.30 |
| O=C1Nc2ccc(S(=O)(=O)Nc3nc4ccccc4s3)cc2CC1CCOc1ccc(Cl)cc1Cl (stereo not shown) [Compound 5, 3-[2-(2,4-Dichloro-phenoxy)-ethyl]-2-oxo-1,2,3,4-tetrahydro-quinoline-6-sulfonic acid benzothiazol-2-ylamide] | 4.70 to 5.30 |
| Cc1cnc(NS(=O)(=O)c2ccc3c(c2)CC(CCOc2ccc(Cl)cc2Cl)C(=O)N3)s1 (stereo not shown) [Compound 7] | 4.70 to 5.30 |
| O=C1Nc2ccc(S(=O)(=O)Nc3cnsn3)cc2CC1CCOc1ccc(Cl)cc1Cl (stereo not shown) [Compound 6] | 4.70 to 5.30 |
